Reference: the Kinase Knowledgebase extract (Sharma et al. 2016)

Each molecule was assayed against PIK3CG (human) (UniProt P48736) (assay: Assessment of PIK3CG Kinase Activity).
PIK3CG (human), sequence (P48736 whole entry, looked up): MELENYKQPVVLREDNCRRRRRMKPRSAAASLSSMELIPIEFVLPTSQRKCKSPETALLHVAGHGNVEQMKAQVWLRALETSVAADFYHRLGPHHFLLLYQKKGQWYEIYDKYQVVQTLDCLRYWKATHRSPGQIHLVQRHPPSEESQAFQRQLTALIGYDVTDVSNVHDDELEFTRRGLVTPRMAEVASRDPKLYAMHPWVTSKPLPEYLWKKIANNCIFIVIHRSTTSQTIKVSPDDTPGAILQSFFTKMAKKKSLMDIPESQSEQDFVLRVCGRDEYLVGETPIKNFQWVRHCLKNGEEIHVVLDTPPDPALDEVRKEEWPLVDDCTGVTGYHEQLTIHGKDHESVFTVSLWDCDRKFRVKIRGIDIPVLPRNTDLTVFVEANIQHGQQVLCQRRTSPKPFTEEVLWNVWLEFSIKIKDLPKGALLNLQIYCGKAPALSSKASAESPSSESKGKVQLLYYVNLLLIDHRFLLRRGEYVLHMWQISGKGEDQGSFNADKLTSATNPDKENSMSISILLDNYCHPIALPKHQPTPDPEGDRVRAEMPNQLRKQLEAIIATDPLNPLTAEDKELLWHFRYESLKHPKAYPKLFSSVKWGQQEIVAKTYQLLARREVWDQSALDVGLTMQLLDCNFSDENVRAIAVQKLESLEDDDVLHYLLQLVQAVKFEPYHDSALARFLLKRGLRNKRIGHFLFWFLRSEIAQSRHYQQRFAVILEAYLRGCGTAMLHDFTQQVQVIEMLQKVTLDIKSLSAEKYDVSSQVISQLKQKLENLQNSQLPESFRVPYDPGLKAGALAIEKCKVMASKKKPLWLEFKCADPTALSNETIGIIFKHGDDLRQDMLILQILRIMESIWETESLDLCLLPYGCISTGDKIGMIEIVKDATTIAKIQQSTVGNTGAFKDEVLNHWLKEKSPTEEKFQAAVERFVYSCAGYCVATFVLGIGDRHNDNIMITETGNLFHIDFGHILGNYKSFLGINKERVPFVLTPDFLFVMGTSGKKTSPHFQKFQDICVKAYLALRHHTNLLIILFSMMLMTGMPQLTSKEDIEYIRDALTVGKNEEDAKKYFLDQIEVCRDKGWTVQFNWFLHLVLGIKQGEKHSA

Question: Which IC50 does the source give for COc1cc2c(Oc3ccc(C4CCN(C(C)=O)CC4)cc3)c(C(=O)Nc3nn[nH]n3)sc2cc1C here?
Answer: Its IC50 is 14 nM.

Question: With COc1cc2c(Oc3ccc(C(C)(C)C)c(C(C)(C)C)c3)c(C(=O)Nc3nn[nH]n3)sc2cc1C as the molecule, how does the IC50 read?
Answer: The IC50 was 2340 nM.

Question: With COc1cc2c(Oc3ccc(C4CCCC(O)C4)cc3)c(C(=O)Nc3nn[nH]n3)sc2cc1C (configuration not stated) as the molecule, how does the IC50 read?
Answer: Its IC50 is 8 nM.

Question: COc1cc2sc(C(=O)Nc3nnn[nH]3)c(Oc3ccc(CCCSc4ccc(Cl)cc4)cc3)c2cc1C was tested. Which IC50 did it give?
Answer: Its IC50 is 2610 nM.

Question: For COc1cc2c(OC[C@H](C)c3ccccc3)c(C(=O)Nc3nn[nH]n3)sc2cc1C, which IC50 is on record?
Answer: The IC50 was 56 nM.

Question: With COc1cc2c(Oc3ccc(C4CCN(C(=O)C(C)C)CC4)cc3)c(C(=O)Nc3nn[nH]n3)sc2cc1C as the molecule, how does the IC50 read?
Answer: The IC50 was 11 nM.

Question: For COc1cc2c(Oc3ccc(C4CC(C)(C)CC(C)(C)C4)cc3)c(C(=O)Nc3nn[nH]n3)sc2cc1C, which IC50 is on record?
Answer: The IC50 was 325 nM.

Question: How did the IC50 turn out when COc1cc2sc(C(=O)Nc3nnn[nH]3)c(OCc3ccc4ccccc4c3)c2cc1OC was run?
Answer: Its IC50 is 210 nM.

Question: With COc1cc2c(Oc3ccc(C(O)c4ccccc4)cc3)c(C(=O)Nc3nn[nH]n3)sc2cc1C (configuration not stated) as the molecule, how does the IC50 read?
Answer: The IC50 was 8 nM.

Question: Which IC50 does the source give for COc1cc2c(Oc3ccc(C4CCN(C(=O)C(C)(C)NC(=O)OC(C)(C)C)CC4)cc3)c(C(=O)Nc3nn[nH]n3)sc2cc1C here?
Answer: Its IC50 is 20 nM.

Question: How did the IC50 turn out when COc1cc2c(Oc3ccc(C4CCOCC4)cc3)c(C(=O)Nc3nn[nH]n3)sc2cc1C was run?
Answer: The IC50 was 9 nM.

Question: How did the IC50 turn out when COc1cc2c(Oc3ccc(C4CCSCC4)cc3)c(C(=O)Nc3nn[nH]n3)sc2cc1C was run?
Answer: The IC50 was 8 nM.

Question: With COc1cc2c(Oc3ccc(C(C4CCCCC4)N4CCCCC4)cc3)c(C(=O)Nc3nn[nH]n3)sc2cc1C (configuration not stated) as the molecule, how does the IC50 read?
Answer: Its IC50 is 715 nM.

Question: COc1cc2c(Oc3ccc(C4CCNCC4)cc3)c(C(=O)Nc3nn[nH]n3)sc2cc1C was tested. Which IC50 did it give?
Answer: The IC50 was 365 nM.

Question: Which IC50 does the source give for COc1cc2sc(C(=O)Nc3nnn[nH]3)c(Oc3ccc(CCCSC4CCCCC4)cc3)c2cc1C here?
Answer: Its IC50 is 240 nM.

Question: Which IC50 does the source give for COc1cc2c(Oc3ccc(C(=O)c4ccccc4)cc3)c(C(=O)Nc3nn[nH]n3)sc2cc1C here?
Answer: The IC50 was 27 nM.

Question: How did the IC50 turn out when COc1cc2sc(C(=O)Nc3nn[nH]n3)c(Oc3cccc(C(=N)N)c3)c2cc1C was run?
Answer: The IC50 was 388 nM.
